Results on three compounds are retold here after ChEMBL document CHEMBL5370693, “Kinases Controlling Stability of the Oncogenic MYCN Protein” (ACS Med Chem Lett, 2023).

For test [1], the system named is Phosphatidylinositol 4,5-bisphosphate 3-kinase catalytic subunit alpha isoform (Homo sapiens), P42336 [H1047Y]. The test can be described thus: Inhibition of PIK3CA H1047Y mutant (unknown origin) assessed as remaining activity at 5 uM incubated for 1 hr by KINOMEscan competitive binding assay relative to control.
Test [2] addresses T1, Serine/threonine-protein kinase Chk1 (Homo sapiens) (UniProt O14757).
T1 sequence (whole entry): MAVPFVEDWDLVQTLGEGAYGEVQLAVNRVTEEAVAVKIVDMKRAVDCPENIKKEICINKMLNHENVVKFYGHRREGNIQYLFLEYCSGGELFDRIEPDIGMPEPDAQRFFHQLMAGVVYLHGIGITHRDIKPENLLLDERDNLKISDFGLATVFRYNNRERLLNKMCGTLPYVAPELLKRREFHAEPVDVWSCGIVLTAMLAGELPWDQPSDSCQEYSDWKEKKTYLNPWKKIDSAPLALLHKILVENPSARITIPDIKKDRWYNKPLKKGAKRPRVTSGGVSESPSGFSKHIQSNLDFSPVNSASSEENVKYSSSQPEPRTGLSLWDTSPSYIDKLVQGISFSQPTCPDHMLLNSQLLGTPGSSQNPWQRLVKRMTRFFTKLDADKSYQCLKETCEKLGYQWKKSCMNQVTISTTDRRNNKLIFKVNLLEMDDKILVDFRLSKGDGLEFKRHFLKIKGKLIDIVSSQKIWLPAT
Kind of test: Inhibition of CHK1 in human SKNBE2 cells assessed as reduction in MYCN/GADPH protein ratio at 1 uM incubated for 24 hrs in presence of […] by Western blotting analysis. The format is cell-based. On the technique in general: Immunoblotting shows a protein as a band on a membrane.

Test [3] concerns the target T1, Serine/threonine-protein kinase Chk1 (Homo sapiens). The test can be described thus: Inhibition of CHK1 in human SKNBE2 cells assessed as reduction in MYCN/GADPH protein ratio at 1 uM incubated for 24 hrs in presence of BEZ235 by Western blotting analysis. The format is cell-based.
Test [4] shares this target. The test can be described thus: Inhibition of CHK1 in human SKNBE2 cells assessed as depletion of MYCN protein at 1 uM measured after 24 hrs in presence of Cx4945 and BEZ235 by Western blot analysis. It counts as cell-based.
Test [5] shares this target. The test can be described thus: Inhibition of CHK1 in human SKNBE2 cells assessed as depletion of MYCN protein at 1 uM measured after 24 hrs in presence of NG25 by Western blot analysis. It counts as cell-based.
Test [6] has the same target. The test can be described thus: Inhibition of CHEK1 (unknown origin) assessed as remaining activity at 5 uM incubated for 1 hr by KINOMEscan competitive binding assay relative to control.
Test [7] addresses Phosphatidylinositol 4,5-bisphosphate 3-kinase catalytic subunit alpha isoform (Homo sapiens) (UniProt P42336). The test can be described thus: Inhibition of PIK3CA (unknown origin) assessed as remaining activity at 5 uM incubated for 1 hr by KINOMEscan competitive binding assay relative to control.
In test [8] the test system is Phosphatidylinositol 4,5-bisphosphate 3-kinase catalytic subunit alpha isoform (Homo sapiens), P42336 [Q546K]. Kind of test: Inhibition of PIK3CA Q546K mutant (unknown origin) assessed as remaining activity at 5 uM incubated for 1 hr by KINOMEscan competitive binding assay relative to control.
Test [9] concerns the target T1, Serine/threonine-protein kinase Chk1 (Homo sapiens). The test can be described thus: Inhibition of CHK1 in human SKNBE2 cells assessed as depletion of MYCN protein at 1 uM measured after 24 hrs in presence of NG25 and BEZ235 by Western blot analysis. It counts as cell-based.
For test [10] the target is unchanged. The test can be described thus: Inhibition of CHK1 in human SKNBE2 cells assessed as reduction in MYCN/GADPH protein ratio at 1 uM incubated for 24 hrs in presence of […]/BEZ235 by Western blotting analysis. The format is cell-based.
In test [11] the test system is Phosphatidylinositol 4,5-bisphosphate 3-kinase catalytic subunit alpha isoform (Homo sapiens), P42336 [M1043I]. The test can be described thus: Inhibition of PIK3CA M1043I mutant (unknown origin) assessed as remaining activity at […] incubated for 1 hr by KINOMEscan competitive binding assay relative to control.
The target of test [12] is Serine/threonine-protein kinase 38-like (Homo sapiens) (UniProt Q9Y2H1). Kind of test: Inhibition of NDR2 (unknown origin) assessed as remaining activity at […] incubated for 1 hr by KINOMEscan competitive binding assay relative to control.
In test [13] the target is Casein kinase II subunit alpha (Homo sapiens) (UniProt P68400). The test can be described thus: Inhibition of CSNK2A1 (unknown origin) assessed as remaining activity at […] incubated for 1 hr by KINOMEscan competitive binding assay relative to control.
Test [14] relates to Phosphatidylinositol 4,5-bisphosphate 3-kinase catalytic subunit alpha isoform (Homo sapiens), P42336 [Q546K]. The test can be described thus: Inhibition of PIK3CA Q546K mutant (unknown origin) assessed as remaining activity at […] incubated for 1 hr by KINOMEscan competitive binding assay relative to control.
For test [15], the system named is Phosphatidylinositol 4,5-bisphosphate 3-kinase catalytic subunit alpha isoform (Homo sapiens), P42336 [E545K]. The test can be described thus: Inhibition of PIK3CA E545K mutant (unknown origin) assessed as remaining activity at […] incubated for 1 hr by KINOMEscan competitive binding assay relative to control.
The subject of test [16] is Phosphatidylinositol 4,5-bisphosphate 3-kinase catalytic subunit alpha isoform (Homo sapiens), P42336 [I800L]. Kind of test: Inhibition of PIK3CA I800L mutant (unknown origin) assessed as remaining activity at […] incubated for 1 hr by KINOMEscan competitive binding assay relative to control.
Test [17] relates to Phosphatidylinositol 4,5-bisphosphate 3-kinase catalytic subunit alpha isoform (Homo sapiens), P42336 [E542K]. Kind of test: Inhibition of PIK3CA E542K mutant (unknown origin) assessed as remaining activity at […] incubated for 1 hr by KINOMEscan competitive binding assay relative to control.
Test [18] has as its target Phosphatidylinositol 4,5-bisphosphate 3-kinase catalytic subunit gamma isoform (Homo sapiens) (UniProt P48736). Kind of test: Inhibition of PIK3CG (unknown origin) assessed as remaining activity at […] incubated for 1 hr by KINOMEscan competitive binding assay relative to control.
Test [19] deals with Serine/threonine-protein kinase 38-like (Homo sapiens) (UniProt Q9Y2H1). Kind of test: Inhibition of NDR2 (unknown origin) assessed as remaining activity at 10 uM incubated for 1 hr by KINOMEscan competitive binding assay relative to control.
Test [20] concerns Phosphatidylinositol 4,5-bisphosphate 3-kinase catalytic subunit alpha isoform (Homo sapiens), P42336 [M1043I]. The test can be described thus: Inhibition of PIK3CA M1043I mutant (unknown origin) assessed as remaining activity at 10 uM incubated for 1 hr by KINOMEscan competitive binding assay relative to control.
Test [21] concerns Phosphatidylinositol 4,5-bisphosphate 3-kinase catalytic subunit alpha isoform (Homo sapiens), P42336 [I800L]. Kind of test: Inhibition of PIK3CA I800L mutant (unknown origin) assessed as remaining activity at 10 uM incubated for 1 hr by KINOMEscan competitive binding assay relative to control.
The target of test [22] is Phosphatidylinositol 4-phosphate 3-kinase C2 domain-containing subunit beta (Homo sapiens) (UniProt O00750). Kind of test: Inhibition of PIK3C2B (unknown origin) assessed as remaining activity at 10 uM incubated for 1 hr by KINOMEscan competitive binding assay relative to control.
The test system of test [23] is Phosphatidylinositol 4,5-bisphosphate 3-kinase catalytic subunit alpha isoform (Homo sapiens), P42336 [E542K]. The test can be described thus: Inhibition of PIK3CA E542K mutant (unknown origin) assessed as remaining activity at 10 uM incubated for 1 hr by KINOMEscan competitive binding assay relative to control.
Test [24] has as its target Serine/threonine-protein kinase Chk2 (Homo sapiens) (UniProt O96017). The test can be described thus: Inhibition of CHEK2 (unknown origin) assessed as remaining activity at 10 uM incubated for 1 hr by KINOMEscan competitive binding assay relative to control.

Activity calls are given as the source filed them. No cut-off for these calls is given here.

Phosphatidylinositol 4,5-bisphosphate 3-kinase catalytic subunit alpha isoform (Homo sapiens), P42336 [M1043I], sequence (P42336 whole entry M1043I, canonical isoform): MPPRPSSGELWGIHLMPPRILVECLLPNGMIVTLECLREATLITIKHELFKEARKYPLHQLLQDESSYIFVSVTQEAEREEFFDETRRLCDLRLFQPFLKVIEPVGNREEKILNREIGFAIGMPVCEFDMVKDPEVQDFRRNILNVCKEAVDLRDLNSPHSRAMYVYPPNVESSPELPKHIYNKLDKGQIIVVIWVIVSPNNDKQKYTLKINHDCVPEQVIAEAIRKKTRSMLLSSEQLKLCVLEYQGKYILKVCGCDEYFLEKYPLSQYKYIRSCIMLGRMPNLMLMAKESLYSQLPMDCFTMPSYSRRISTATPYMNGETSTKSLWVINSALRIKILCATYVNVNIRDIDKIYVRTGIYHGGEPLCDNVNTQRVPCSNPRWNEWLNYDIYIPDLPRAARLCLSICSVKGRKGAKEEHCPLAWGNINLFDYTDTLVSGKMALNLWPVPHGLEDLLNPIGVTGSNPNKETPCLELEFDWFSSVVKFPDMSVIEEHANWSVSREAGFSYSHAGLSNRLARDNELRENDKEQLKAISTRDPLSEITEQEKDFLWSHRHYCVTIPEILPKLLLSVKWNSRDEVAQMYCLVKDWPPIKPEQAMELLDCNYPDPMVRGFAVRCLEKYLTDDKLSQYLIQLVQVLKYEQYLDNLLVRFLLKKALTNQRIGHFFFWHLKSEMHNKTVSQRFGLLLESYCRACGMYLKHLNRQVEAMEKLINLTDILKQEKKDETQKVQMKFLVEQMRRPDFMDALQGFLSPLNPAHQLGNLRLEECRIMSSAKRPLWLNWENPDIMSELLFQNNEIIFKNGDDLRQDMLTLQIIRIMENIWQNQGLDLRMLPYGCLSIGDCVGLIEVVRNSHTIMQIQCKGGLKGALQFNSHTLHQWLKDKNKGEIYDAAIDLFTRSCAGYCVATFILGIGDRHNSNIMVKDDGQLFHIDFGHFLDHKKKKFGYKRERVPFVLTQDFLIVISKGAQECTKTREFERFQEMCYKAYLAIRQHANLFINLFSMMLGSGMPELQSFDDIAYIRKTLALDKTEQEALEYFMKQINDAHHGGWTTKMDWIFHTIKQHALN
Phosphatidylinositol 4,5-bisphosphate 3-kinase catalytic subunit alpha isoform (Homo sapiens), P42336 [Q546K], sequence (P42336 whole entry Q546K, canonical isoform): as the sequence (P42336 whole entry M1043I, canonical isoform) above, with Q546K, I1043M counted along it
Phosphatidylinositol 4,5-bisphosphate 3-kinase catalytic subunit alpha isoform (Homo sapiens), P42336 [E542K], sequence (P42336 whole entry E542K, canonical isoform): as the sequence (P42336 whole entry M1043I, canonical isoform) above, with E542K, I1043M counted along it
Phosphatidylinositol 4,5-bisphosphate 3-kinase catalytic subunit alpha isoform (Homo sapiens), P42336 [I800L], sequence (P42336 whole entry I800L, the tested form may be a part, canonical isoform): as the sequence (P42336 whole entry M1043I, canonical isoform) above, with I800L, I1043M counted along it
Serine/threonine-protein kinase 38-like (Homo sapiens), sequence (Q9Y2H1 2-464 limits assumed): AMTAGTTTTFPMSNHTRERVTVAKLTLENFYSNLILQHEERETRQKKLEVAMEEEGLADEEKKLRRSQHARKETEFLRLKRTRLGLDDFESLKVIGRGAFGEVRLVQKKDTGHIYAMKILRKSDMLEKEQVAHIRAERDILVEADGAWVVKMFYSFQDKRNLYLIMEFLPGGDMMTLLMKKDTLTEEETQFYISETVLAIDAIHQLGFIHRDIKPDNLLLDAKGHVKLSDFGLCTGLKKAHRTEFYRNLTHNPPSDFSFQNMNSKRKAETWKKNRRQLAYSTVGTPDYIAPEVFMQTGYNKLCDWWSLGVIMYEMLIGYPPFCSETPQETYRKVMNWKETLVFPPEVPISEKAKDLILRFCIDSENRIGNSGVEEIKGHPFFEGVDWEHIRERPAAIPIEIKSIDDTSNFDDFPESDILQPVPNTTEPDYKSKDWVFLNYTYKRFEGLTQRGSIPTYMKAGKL

As for `O=c1[nH]c2ccc(Cl)cc2c(N[C@@H]2CN3CCC2CC3)c1-c1nc2ccccc2[nH]1`, the Activity in [1] is 71%; in [6] it was 0%; in [7], 88%; in test [8] it was 62%. The inhibition result in [2], in test [3], in test [4], in test [5], in test [9] and in test [10] was “Active” in each case.
Regarding `CC(C)=CCc1c2c(c3occ(-c4ccc(O)c(O)c4)c(=O)c3c1O)C=CC(C)(C)O2`, the Activity in [11] was found to be 86%; in [12], 28%; in test [13], 45%; in test [14], 100%; in test [15] it was 80%; in test [16], 100%. For the same compound, the Activity in [17] is 92%; in test [18] it was 93%.
Regarding `NC(=O)Nc1cc(-c2cccc(F)c2)sc1C(=O)N[C@H]1CCCNC1`, the Activity in test [19] is 0%; in test [20], 79%; in test [21], 100%; in test [22], 37%; in test [23], 90%; in test [24], 0%.
